Laboratory results: ChEMBL document CHEMBL3739402, “Chromanones: selective and reversible monoamine oxidase B inhibitors with nanomolar potency” (Medchemcomm, 2015)
pIC50: −log10 of the molar value.

What was measured:
[1] = molecular target: T1, Amine oxidase [flavin-containing] B (Homo sapiens, UniProt P27338); assay: Inhibition of human MAO-B using p-tyramine as substrate assessed as production of H2O2 from p-tyramine incubated for 15 mins by Amplex Red MAO assay
T1 sequence (P27338 whole entry): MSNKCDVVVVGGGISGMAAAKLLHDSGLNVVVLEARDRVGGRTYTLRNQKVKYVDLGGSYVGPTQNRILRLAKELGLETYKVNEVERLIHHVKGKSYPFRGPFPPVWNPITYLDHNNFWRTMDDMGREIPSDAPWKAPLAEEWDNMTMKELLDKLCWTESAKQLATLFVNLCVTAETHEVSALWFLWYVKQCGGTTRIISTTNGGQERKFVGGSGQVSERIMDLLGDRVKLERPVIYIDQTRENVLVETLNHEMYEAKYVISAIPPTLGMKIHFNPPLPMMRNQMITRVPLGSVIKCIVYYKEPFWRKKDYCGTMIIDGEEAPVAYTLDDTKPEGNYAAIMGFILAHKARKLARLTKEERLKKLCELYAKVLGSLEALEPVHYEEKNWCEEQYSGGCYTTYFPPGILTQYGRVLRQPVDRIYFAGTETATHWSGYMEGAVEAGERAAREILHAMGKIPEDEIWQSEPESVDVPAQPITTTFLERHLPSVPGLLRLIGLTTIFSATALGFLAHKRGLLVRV

[2] = molecular target: T2, Amine oxidase [flavin-containing] A (Homo sapiens, UniProt P21397); assay: Inhibition of human MAO-A using p-tyramine as substrate assessed as production of H2O2 from p-tyramine at 100 uM incubated for 15 mins by Amplex Red MAO assay; conditions: 0.25 h
T2 sequence (P21397 whole entry): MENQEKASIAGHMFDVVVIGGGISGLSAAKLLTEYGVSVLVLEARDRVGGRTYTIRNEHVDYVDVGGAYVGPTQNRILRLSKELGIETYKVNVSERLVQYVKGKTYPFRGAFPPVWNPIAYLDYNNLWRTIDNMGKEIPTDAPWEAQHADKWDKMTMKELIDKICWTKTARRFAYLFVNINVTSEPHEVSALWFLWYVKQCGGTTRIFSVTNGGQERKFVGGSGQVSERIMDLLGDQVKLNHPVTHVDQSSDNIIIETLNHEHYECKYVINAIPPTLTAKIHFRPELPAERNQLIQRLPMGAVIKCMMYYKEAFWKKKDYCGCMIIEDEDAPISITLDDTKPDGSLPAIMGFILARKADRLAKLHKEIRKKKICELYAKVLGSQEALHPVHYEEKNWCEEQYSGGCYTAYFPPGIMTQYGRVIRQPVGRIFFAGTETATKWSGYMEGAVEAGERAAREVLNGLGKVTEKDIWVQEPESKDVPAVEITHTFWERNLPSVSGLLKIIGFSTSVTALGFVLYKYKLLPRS

[3] = molecular target: T2, Amine oxidase [flavin-containing] A; assay: Inhibition of human MAO-A using p-tyramine as substrate assessed as production of H2O2 from p-tyramine incubated for 15 mins by Amplex Red MAO assay
Homo sapiens = organism: Homo sapiens; assay: Selectivity index, ratio of IC50 for human MAO-A to IC50 for human MA)-B by Amplex Red MAO assay
[4] = molecular target: T1, Amine oxidase [flavin-containing] B; assay: Competitive inhibition of human MAO-B using 50 to 500 uM p-tyramine as substrate at 4.3 to 17.2 nM by Lineweaver-Burk plot analysis
[5] = molecular target: T1, Amine oxidase [flavin-containing] B; assay: Time dependent inhibition of human MAO-B preincubated at twice the IC50 for 0 to 60 mins
[6] = molecular target: T1, Amine oxidase [flavin-containing] B; assay: Inhibition of human MAO-B preincubated at twice the IC50 for 0 mins
[7] = molecular target: T1, Amine oxidase [flavin-containing] B; assay: Inhibition of human MAO-B preincubated at twice the IC50 for 60 mins
SH-SY5Y = assay: Neurotoxicity against human SH-SY5Y cells assessed as cell viability at 3 to 50 uM after 48 hrs by MTT assay; type: toxicity, cell-based
[8] = molecular target: T1, Amine oxidase [flavin-containing] B; assay: Inhibition of human MAO-B preincubated at twice the IC50 for 30 mins
[9] = molecular target: T1, Amine oxidase [flavin-containing] B; assay: Inhibition of human MAO-B preincubated at twice the IC50 for 15 mins
[10] = molecular target: T1, Amine oxidase [flavin-containing] B; assay: Reversible inhibition of human MAO-B preincubated at twice the IC50 for 0 to 60 mins

Structure (SMILES) | pIC50 [1] | inhibition at 100 µM [2] | also measured
CC1(C)CC(=O)c2ccc(OCc3cccc(F)c3)cc2O1 | 7.18 | 18% | 
Cc1cccc(COc2ccc3c(c2)OC(C)(C)CC3=O)c1 | 7.01 | 18% | 
CC1(C)CC(=O)c2ccc(OCc3ccc(F)cc3)cc2O1 |  | 25% | Activity (SH-SY5Y): Non-toxic
CC1(C)CC(=O)c2ccc(OCc3cccc(Br)c3)cc2O1 | 7.28 | 16% | 
CC1(C)CC(=O)c2ccc(OCc3ccccc3F)cc2O1 | 7.16 | 28% | 
CC1(C)CC(=O)c2ccc(OCc3ccccc3)cc2O1 | 7.01 | 25% | 
CC1(C)CC(=O)c2ccc(OCc3cccc(Cl)c3)cc2O1 | 7.26 | 31% | 
CC1(C)CC(=O)c2ccc(OCc3ccc(Cl)cc3)cc2O1 |  | 28% | 
O=C1COc2cc(OCCc3ccccc3)ccc21 | 5.67 |  | pIC50 [3]: 4.33; Ratio IC50 (Homo sapiens): 21.8
CC1(C)CC(=O)c2ccc(OCc3ccc(C#N)cc3)cc2O1 | 7.16 | 23% | 
Cc1ccc(COc2ccc3c(c2)OC(C)(C)CC3=O)cc1 | 6.95 | 25% | 
O=C1COc2cc(OCCCc3ccccc3)ccc21 | 4.69 |  | pIC50 [3]: 4.41; Ratio IC50 (Homo sapiens): 1.9
CC1(C)CC(=O)c2ccc(OCc3ccc(Br)cc3)cc2O1 | 7.34 | 21% | 

Now from value to compound, other results behind:

pIC50 [1] | inhibition at 100 µM [2] | Structure (SMILES) | also measured
4.10 |  | O=C1CCOc2cc(O)ccc21 | pIC50 [3]: 4.15; Ratio IC50 (Homo sapiens): 0.9
 | 43% | O=C1CCOc2cc(OCc3ccc(F)cc3)ccc21 | inhibition (INH) [4]: Active; TDI [5]: Not Active; inhibition (INH) [6]: 42.4%; inhibition (INH) [7]: 49.6%; Activity (SH-SY5Y): Non-toxic; inhibition (INH) [8]: 45.5%; inhibition (INH) [9]: 44.5%; inhibition (INH) [10]: Active
7.67 | 19% | O=C1CCOc2cc(OCc3ccc(Br)cc3)ccc21 | 
7.33 | 27% | N#Cc1ccc(COc2ccc3c(c2)OCCC3=O)cc1 | 
7.45 | 35% | O=C1CCOc2cc(OCc3cccc(Cl)c3)ccc21 | 
7.24 | 18% | O=C1CCOc2cc(OCc3ccccc3)ccc21 | 
7.23 | 35% | O=C1CCOc2cc(OCc3ccccc3F)ccc21 | 
7.28 | 26% | O=C1CCOc2cc(OCc3cccc(F)c3)ccc21 | Ratio IC50 (Homo sapiens): > 1900
7.04 | 26% | Cc1ccc(COc2ccc3c(c2)OCCC3=O)cc1 | 
 | 19% | Cc1cccc(COc2ccc3c(c2)OCCC3=O)c1 | 
4.82 |  | O=C1COc2cc(OCc3ccccc3)ccc21 | pIC50 [3]: 4.42; Ratio IC50 (Homo sapiens): 2.5
 | 37% | O=C1CCOc2cc(OCc3ccc(Cl)cc3)ccc21 | 
7.52 | 28% | O=C1CCOc2cc(OCc3cccc(Br)c3)ccc21 | 
6.60 | 58% | O=C1CCOc2cc(OCCc3ccccc3)ccc21 | 
4.67 | 65% | O=C1CCOc2cc(OCCCc3ccccc3)ccc21 | 
